Reference: PubChem BioAssay AID248 (DTP/NCI, 2004)
Several values for one entry are separate records, joined by “and”; a condition that tells them apart may be missing. Equal values may be shown once. Inconclusive results and toxic doses are left out.

Test system: L1210 leukemia ip in BDF1 mice, survival T/C
Assay: NCI In Vivo Anticancer Drug Screen. Data for tumor model L1210 Leukemia (intraperitoneal) in B6D2F1 (BDF1) mice
Conditions: endpoint: mean survival time, higher = longer survival
Outline: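 Ratio derived from survival: compound-dosed mice over vehicle-dosed mice, all bearing a transplantable tumor.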

[1] = dose: 25.0 mg/kg/injection, schedule: Q01DX009 (ip), vehicle: Klucel (hydroxypropylcellulose) (HPC)
[2] = dose: 50.0 mg/kg/injection, schedule: Q01DX009 (ip), vehicle: Klucel (hydroxypropylcellulose) (HPC)
[3] = dose: 100.0 mg/kg/injection, schedule: Q01DX009 (ip), vehicle: Klucel (hydroxypropylcellulose) (HPC)
[4] = dose: 100.0 mg/kg/injection, schedule: Q04DX003 (ip), vehicle: Klucel (hydroxypropylcellulose) (HPC)
[5] = dose: 200.0 mg/kg/injection, schedule: Q04DX003 (ip), vehicle: Klucel (hydroxypropylcellulose) (HPC)
[6] = dose: 400.0 mg/kg/injection, schedule: Q04DX003 (ip), vehicle: Klucel (hydroxypropylcellulose) (HPC)
[7] = dose: 100.0 mg/kg/injection, schedule: Q01DX009 (ip), vehicle: saline with Tween-80
[8] = dose: 100.0 mg/kg/injection, schedule: Q04DX003 (ip), vehicle: saline with Tween-80
[9] = dose: 200.0 mg/kg/injection, schedule: Q01DX009 (ip), vehicle: saline with Tween-80
[10] = dose: 200.0 mg/kg/injection, schedule: Q04DX003 (ip), vehicle: saline with Tween-80
[11] = dose: 400.0 mg/kg/injection, schedule: Q04DX003 (ip), vehicle: saline with Tween-80
[12] = dose: 25.0 mg/kg/injection, schedule: Q04DX002 (ip), vehicle: saline
[13] = dose: 50.0 mg/kg/injection, schedule: Q04DX002 (ip), vehicle: saline
[14] = dose: 100.0 mg/kg/injection, schedule: Q04DX002 (ip), vehicle: saline
[15] = dose: 100.0 mg/kg/injection, schedule: Q01DX001 (ip), vehicle: Klucel (hydroxypropylcellulose) (HPC)
[16] = dose: 200.0 mg/kg/injection, schedule: Q01DX001 (ip), vehicle: Klucel (hydroxypropylcellulose) (HPC)
[17] = dose: 400.0 mg/kg/injection, schedule: Q01DX001 (ip), vehicle: Klucel (hydroxypropylcellulose) (HPC)
[18] = dose: 100.0 mg/kg/injection, schedule: Q01DX009 (ip), vehicle: saline
[19] = dose: 100.0 mg/kg/injection, schedule: Q04DX003 (ip), vehicle: saline
[20] = dose: 200.0 mg/kg/injection, schedule: Q01DX009 (ip), vehicle: saline
[21] = dose: 200.0 mg/kg/injection, schedule: Q04DX003 (ip), vehicle: saline
[22] = dose: 400.0 mg/kg/injection, schedule: Q01DX009 (ip), vehicle: saline
[23] = dose: 100.0 mg/kg/injection, schedule: Q01DX001 (ip), vehicle: saline with Tween-80
[24] = dose: 200.0 mg/kg/injection, schedule: Q01DX001 (ip), vehicle: saline with Tween-80
[25] = dose: 400.0 mg/kg/injection, schedule: Q01DX001 (ip), vehicle: saline with Tween-80
[26] = dose: 100.0 mg/kg/injection, schedule: Q01DX001 (ip), vehicle: saline
[27] = dose: 200.0 mg/kg/injection, schedule: Q01DX001 (ip), vehicle: saline
[28] = dose: 400.0 mg/kg/injection, schedule: Q01DX001 (ip), vehicle: saline

O=S(=O)(c1cc(Cl)c(O)c(Cl)c1)c1cc(Cl)c(O)c(Cl)c1
T/C [1]: 92 % of control
T/C [2]: 96 % of control
T/C [3]: 95 % of control and 109 % of control

CC(=O)Nc1ccc(NCN2C(=O)c3ccccc3C2=O)cc1
T/C [4]: 100 % of control
T/C [5]: 97 % of control
T/C [6]: 97 % of control

Clc1ccc(Cl)c(NNc2cc(Cl)ccc2Cl)c1
T/C [1]: 114 % of control
T/C [2]: 98 % of control
T/C [3]: 96 % of control and 92 % of control
T/C [4]: 98 % of control
T/C [5]: 101 % of control

CCCCC(CC)CN(CCOc1nc(OCCN(CC(CC)CCCC)CC(CC)CCCC)nc(OCCN(CC(CC)CCCC)CC(CC)CCCC)n1)CC(CC)CCCC (centres undefined)
T/C (dose: 25.6 mg/kg/injection, schedule: Q04DX002 (ip), vehicle: saline with Tween-80): 102 % of control
T/C (dose: 64.0 mg/kg/injection, schedule: Q04DX002 (ip), vehicle: saline with Tween-80): 94 % of control
T/C (dose: 160.0 mg/kg/injection, schedule: Q04DX002 (ip), vehicle: saline with Tween-80): 97 % of control
T/C (dose: 400.0 mg/kg/injection, schedule: Q04DX002 (ip), vehicle: saline with Tween-80): 94 % of control

CC(C)(C)N1C=C(c2ccccc2)N=CC1(c1ccccc1)C(C)(C)C (centres undefined)
T/C (dose: 50.0 mg/kg/injection, schedule: Q04DX002 (ip), vehicle: saline with Tween-80): 99 % of control
T/C (dose: 100.0 mg/kg/injection, schedule: Q04DX002 (ip), vehicle: Klucel (hydroxypropylcellulose) (HPC)): 92 % of control
T/C (dose: 100.0 mg/kg/injection, schedule: Q04DX002 (ip), vehicle: saline with Tween-80): 99 % of control
T/C (dose: 200.0 mg/kg/injection, schedule: Q04DX002 (ip), vehicle: Klucel (hydroxypropylcellulose) (HPC)): 100 % of control
T/C (dose: 200.0 mg/kg/injection, schedule: Q04DX002 (ip), vehicle: saline with Tween-80): 99 % of control
T/C (dose: 400.0 mg/kg/injection, schedule: Q04DX002 (ip), vehicle: Klucel (hydroxypropylcellulose) (HPC)): 103 % of control

COc1ccc(CC(=O)N2CCc3cc(OC)c(OC)cc3C2O)cc1OC (centres undefined)
T/C [7]: 96 % of control
T/C [8]: 100 % of control
T/C [9]: 91 % of control
T/C [10]: 103 % of control
T/C (dose: 400.0 mg/kg/injection, schedule: Q01DX009 (ip), vehicle: saline with Tween-80): 88 % of control
T/C [11]: 102 % of control

CCCCN1CCCC(OC(=O)N(C)C)C1 (centres undefined)
T/C [12]: 105 % of control
T/C [13]: 102 % of control
T/C [14]: 97 % of control

O=[N+]([O-])c1ccc(N2CCN(c3cccc(C(F)(F)F)c3)CC2)c([N+](=O)[O-])c1
T/C [8]: 105 % of control
T/C [10]: 102 % of control
T/C [11]: 100 % of control

C#CCN1CCCC1
T/C (dose: 12.5 mg/kg/injection, schedule: Q04DX003 (ip), vehicle: saline): 92 % of control
T/C (dose: 25.0 mg/kg/injection, schedule: Q04DX003 (ip), vehicle: saline): 92 % of control
T/C (dose: 50.0 mg/kg/injection, schedule: Q04DX003 (ip), vehicle: saline): 95 % of control

Cc1c(Cl)c(CCl)c(Cl)c(CCl)c1Cl
T/C [15]: 94 % of control
T/C [16]: 92 % of control
T/C [17]: 89 % of control

COCCCN=C(N)C(N)=NCCCOC
T/C [18]: 99 % of control
T/C [19]: 100 % of control and 98 % of control
T/C [20]: 98 % of control
T/C [21]: 93 % of control and 101 % of control
T/C [22]: 98 % of control
T/C (dose: 400.0 mg/kg/injection, schedule: Q04DX003 (ip), vehicle: saline): 93 % of control and 95 % of control

NC(CC(O)C(=O)O)C(=O)O (centres undefined)
T/C (dose: 12.5 mg/kg/injection, schedule: Q04DX002 (ip), vehicle: saline): 95 % of control
T/C [12]: 106 % of control and 96 % of control
T/C [13]: 106 % of control and 96 % of control
T/C [23]: 93 % of control
T/C [14]: 101 % of control
T/C [24]: 97 % of control
T/C [25]: 87 % of control

Nc1c(Cl)ncnc1Nc1ccccc1C(=O)O
T/C (dose: 50.0 mg/kg/injection, schedule: Q01DX001 (ip), vehicle: saline): 102 % of control
T/C [26]: 93 % of control
T/C [27]: 98 % of control
T/C [28]: 98 % of control

CN(CC(O)CN)c1ccccc1 (centres undefined)
T/C [26]: 102 % of control
T/C [27]: 94 % of control

CCOC(=O)C1CCC(=O)O1 (centres undefined)
T/C [14]: 104 % of control
T/C (dose: 200.0 mg/kg/injection, schedule: Q04DX002 (ip), vehicle: saline): 101 % of control
T/C (dose: 400.0 mg/kg/injection, schedule: Q04DX002 (ip), vehicle: saline): 97 % of control

CC(C)(C)OC(=O)NCC(=O)NNC(=O)OC(C)(C)C
T/C [18]: 92 % of control
T/C (dose: 100.0 mg/kg/injection, schedule: Q04DX003 (ip), vehicle: saline sonified): 101 % of control
T/C [20]: 89 % of control
T/C (dose: 200.0 mg/kg/injection, schedule: Q04DX003 (ip), vehicle: saline sonified): 97 % of control
T/C [22]: 92 % of control
T/C (dose: 400.0 mg/kg/injection, schedule: Q04DX003 (ip), vehicle: saline sonified): 95 % of control

CCCCNS(=O)(=O)c1ccc(C(N)=S)cc1
T/C [15]: 111 % of control
T/C [16]: 106 % of control
T/C [17]: 103 % of control

CCCCCCCCCC(C)Cc1ccccc1 (centres undefined)
T/C [23]: 100 % of control
T/C [24]: 100 % of control
T/C [25]: 92 % of control

COC(=O)C1C(C(=O)OC)C2C3OC(=O)C(C2C(=O)OC)C1C3C (centres undefined)
T/C [26]: 103 % of control
T/C [18]: 100 % of control
T/C [27]: 98 % of control
T/C [20]: 103 % of control
T/C [28]: 101 % of control
T/C [22]: 87 % of control

COc1cc2c(cc1OCc1ccccc1)C(C#N)N(C(=O)c1ccccc1)C=C2 (centres undefined)
T/C (dose: 25.0 mg/kg/injection, schedule: Q01DX009 (ip), vehicle: saline): 98 % of control
T/C (dose: 50.0 mg/kg/injection, schedule: Q01DX009 (ip), vehicle: saline): 100 % of control
T/C [18]: 93 % of control
T/C [20]: 86 % of control

Cc1ccc(P(=O)(O)O)cc1C
T/C (dose: 37.5 mg/kg/injection, schedule: Q01DX009 (ip), vehicle: saline): 101 % of control
T/C [2]: 101 % of control
T/C (dose: 75.0 mg/kg/injection, schedule: Q01DX009 (ip), vehicle: saline): 89 % of control
T/C [3]: 95 % of control
T/C [19]: 100 % of control
T/C (dose: 150.0 mg/kg/injection, schedule: Q01DX009 (ip), vehicle: saline): 87 % of control
T/C (dose: 200.0 mg/kg/injection, schedule: Q01DX009 (ip), vehicle: Klucel (hydroxypropylcellulose) (HPC)): 101 % of control
T/C [21]: 88 % of control

COC(=O)Cc1cn[nH]c1C(=O)OC
T/C [18]: 97 % of control
T/C [4]: 93 % of control
T/C [20]: 94 % of control
T/C [5]: 97 % of control
T/C [22]: 95 % of control
T/C [6]: 97 % of control

Cc1cccn(C)c1=O
T/C [26]: 95 % of control
T/C [27]: 101 % of control
T/C [28]: 96 % of control

S=c1nc[nH]c2c1ncn2C1CCCO1 (centres undefined)
T/C (dose: 75.0 mg/kg/injection, schedule: Q01DX Z (ip), vehicle: methylcellulose (MC)): 159 % of control

OC1(O)COC(c2ccccc2)OC1
T/C [18]: 96 % of control
T/C [4]: 105 % of control
T/C [20]: 102 % of control
T/C [5]: 101 % of control
T/C [22]: 93 % of control
T/C [6]: 99 % of control

CC(=O)Oc1c(C)cc([N+](=O)[O-])cc1[N+](=O)[O-]
T/C (dose: 25.0 mg/kg/injection, schedule: Q04DX003 (ip), vehicle: Klucel (hydroxypropylcellulose) (HPC)): 91 % of control
T/C (dose: 50.0 mg/kg/injection, schedule: Q04DX003 (ip), vehicle: Klucel (hydroxypropylcellulose) (HPC)): 86 % of control

CSCCC(C)C
T/C (dose: 50.0 mg/kg/injection, schedule: Q01DX009 (ip), vehicle: saline with Tween-80): 112 % of control
T/C [7]: 106 % of control
T/C [8]: 95 % of control
T/C [9]: 95 % of control
T/C [10]: 103 % of control
